Measurements published in BindingDB's records for doi:10.1021/acs.biochem.5b00221 (Dalhousie University, 2015).

Molecular target: T1, Mandelate racemase (Pseudomonas putida, UniProt P11444)
T1 sequence (P11444 whole entry): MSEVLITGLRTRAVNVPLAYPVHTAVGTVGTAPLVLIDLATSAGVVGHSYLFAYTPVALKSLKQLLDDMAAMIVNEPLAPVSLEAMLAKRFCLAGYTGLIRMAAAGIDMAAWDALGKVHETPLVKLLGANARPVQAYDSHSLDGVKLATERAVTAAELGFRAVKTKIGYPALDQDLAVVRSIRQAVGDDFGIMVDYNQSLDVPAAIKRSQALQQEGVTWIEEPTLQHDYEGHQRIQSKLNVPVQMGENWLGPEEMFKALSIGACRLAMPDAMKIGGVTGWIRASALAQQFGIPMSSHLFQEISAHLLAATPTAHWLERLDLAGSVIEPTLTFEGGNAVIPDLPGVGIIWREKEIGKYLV
Test: Circular Dichroism (CD) Based Assays
Details: pH 7.5
Method: MR activity was assayed using a CD-based assay by following the change in ellipticity of mandelate at 262 nm using a thermostated quartz cuvette with a 1-cm light path (unless otherwise indicated) as described by Sharp et al. Allassays (total volume of 2 mL) were conducted at 25 °C in Na+ HEPES buffer (0.1 M, pH 7.5) containing MgCl2 (3.3 mM), BSA [0.005% (w/v)], and (R)-mandelate as the substrate. The concentration of MR was determined from its absorbance at 280 nm using an extinction coefficient of 53400 M^−1 cm^−1.

| SMILES | Ki |
| --- | --- |
| O=C(O)C(=O)C(=O)O [Mesoxalate] | 1800 µM |
| O=C(O)C(=O)CF [3-fluoro-2-oxopropanoate] | 1300 µM |
